Measured values reported in publication PMC11995724, “Antibiotic target discovery by integrated phenotypic and activity-based profiling of electrophilic fragments” (Cell chemical biology, 2025).

Test: in vitro
Details: human, hek293t cells

Row | Structure (SMILES) | viability at 48 h, 25 µM [%]
1 | Cn1cc(C(=O)CCl)cc1C(N)=O [10-J06, 4-(2-chloroacetyl)-1-methyl-1H-pyrrole-2-carboxamide] | 1.55
2 | NC(=O)Nc1ccc(C(=O)CCl)cc1 [10-J07, [4-(2-chloroacetyl)phenyl]urea] | 108
3 | Cc1cc(C(=O)CCl)c(C)[nH]1 [10-J08, 2-chloro-1-(2,5-dimethyl-1H-pyrrol-3-yl)ethan-1-one] | 1.07
4 | O=S(=O)(c1cc(Cl)cc(Cl)c1)N1CCSSCC1 [10-J09, 5-(3,5-dichlorobenzenesulfonyl)-1,2,5-dithiazepane] | 102
5 | Cn1ncc(C(=O)CCl)n1 [10-J10, 2-chloro-1-(2-methyl-2H-1,2,3-triazol-4-yl)ethan-1-one] | 85.5
6 | CC(=O)Nc1ccc(NC(=O)N2CCSSCC2)cc1 [10-J11, N-(4-acetamidophenyl)-1,2,5-dithiazepane-5-carboxamide] | 120
7 | Cc1cc(C(=O)CCl)c(C)n1-c1ccc(C(C)C)cc1 [10-J12, 2-chloro-1-{2,5-dimethyl-1-[4-(propan-2-yl)phenyl]-1H-pyrrol-3-yl}ethan-1-one] | 0.754
8 | Cc1ccccc1N1C(=O)C=CC1=O [10-J13, 1-(2-methylphenyl)-2,5-dihydro-1H-pyrrole-2,5-dione] | 109
9 | Cc1cc(C(=O)CCl)c(C)n1-c1ccc(C(F)(F)F)cc1 [10-J14, 2-chloro-1-{2,5-dimethyl-1-[4-(trifluoromethyl)phenyl]-1H-pyrrol-3-yl}ethan-1-one] | 0.425
10 | COc1ccc(N2C(=O)C=CC2=O)c(OC)c1 [10-J15, 1-(2,4-dimethoxyphenyl)-2,5-dihydro-1H-pyrrole-2,5-dione] | 109
11 | CSc1cccc(-n2c(C)cc(C(=O)CCl)c2C)c1 [10-J16, 2-chloro-1-{2,5-dimethyl-1-[3-(methylsulfanyl)phenyl]-1H-pyrrol-3-yl}ethan-1-one] | 0.898
12 | COc1ccc(C(=O)C(C)Cl)c(OC)c1 (stereo not drawn) [10-J17, 2-chloro-1-(2,4-dimethoxyphenyl)propan-1-one] | 91.9
13 | Nc1c(C(=O)CCl)c(=O)[nH]c(=O)n1Cc1ccccc1 [10-J18, 6-amino-1-benzyl-5-(2-chloroacetyl)-1,2,3,4-tetrahydropyrimidine-2,4-dione] | 88.2
14 | O=C1C=CC(=O)N1c1ccc(OC(F)(F)F)cc1 [10-J19, 1-[4-(trifluoromethoxy)phenyl]-2,5-dihydro-1H-pyrrole-2,5-dione] | 85.4
15 | CCOC(=O)c1c(C)[nH]c(C(=O)CCl)c1C [10-J20, ethyl 5-(2-chloroacetyl)-2,4-dimethyl-1H-pyrrole-3-carboxylate] | 1.66
16 | Cc1cc(Cl)ccc1OC(C)C(=O)N1CCSSCC1 (stereo not drawn) [10-J21, 2-(4-chloro-2-methylphenoxy)-1-(1,2,5-dithiazepan-5-yl)propan-1-one] | 110
17 | CC(Cl)C(=O)C=C1N(C)c2ccccc2C1(C)C (stereo not drawn) [10-J22, 3-chloro-1-(1,3,3-trimethyl-2,3-dihydro-1H-indol-2-ylidene)butan-2-one] | 5.56
18 | COc1cccc(N2C(=O)C=CC2=O)c1 [10-K03, 1-(3-methoxyphenyl)-2,5-dihydro-1H-pyrrole-2,5-dione] | 18.5
19 | Cc1cc(C(=O)CCl)c(C)n1-c1ccc(OC(F)F)c(Cl)c1 [10-K04, 2-chloro-1-{1-[3-chloro-4-(difluoromethoxy)phenyl]-2,5-dimethyl-1H-pyrrol-3-yl}ethan-1-one] | 0.0199

Row | Structure (SMILES) | viability at 48 h, 25 µM [%]
20 | O=C(CCl)c1c[nH]c2ccncc12 [10-K05, 2-chloro-1-{1H-pyrrolo[3,2-c]pyridin-3-yl}ethan-1-one] | 1.3
21 | CC(=O)Nc1ccc(C(=O)C(C)Cl)cc1 (stereo not drawn) [10-K06, N-[4-(2-chloropropanoyl)phenyl]acetamide] | 101
22 | O=C1C=CC(=O)N1CCCCO [10-K07, 1-(4-hydroxybutyl)-2,5-dihydro-1H-pyrrole-2,5-dione] | 39.9
23 | CCOc1ccc(-n2c(C)cc(C(=O)CCl)c2C)cc1 [10-K08, 2-chloro-1-[1-(4-ethoxyphenyl)-2,5-dimethyl-1H-pyrrol-3-yl]ethan-1-one] | 0.112
24 | O=C(CCl)C1CC1(Cl)Cl (stereo not drawn) [10-K09, 2-chloro-1-(2,2-dichlorocyclopropyl)ethan-1-one] | 1.74
25 | COc1ccc(Cl)cc1N1C(=O)C=CC1=O [10-K10, 1-(5-chloro-2-methoxyphenyl)-2,5-dihydro-1H-pyrrole-2,5-dione] | 81.3
26 | O=C(CCl)c1sccc1Cl [10-K11, 2-chloro-1-(3-chlorothiophen-2-yl)ethan-1-one] | 17
27 | O=C1C=CC(=O)N1c1ccccc1Sc1ccccc1 [10-K12, 1-[2-(phenylsulfanyl)phenyl]-2,5-dihydro-1H-pyrrole-2,5-dione] | 63
28 | Cc1noc(C)c1C(=O)CCl [10-K13, 2-chloro-1-(3,5-dimethyl-1,2-oxazol-4-yl)ethan-1-one] | 56.9
29 | Cc1cc(C(=O)CCl)c(C)n1-c1ccc2c(c1)OCO2 [10-K14, 1-[1-(1,3-dioxaindan-5-yl)-2,5-dimethyl-1H-pyrrol-3-yl]-2-chloroethan-1-one] | 22.4
30 | O=C(CCl)Cc1c(Cl)cccc1Cl [10-K15, 1-chloro-3-(2,6-dichlorophenyl)propan-2-one] | 23.3
31 | Cc1cc(C(=O)CCl)c(C)s1 [10-K16, 2-chloro-1-(2,5-dimethylthiophen-3-yl)ethan-1-one] | 0.769
32 | O=C(CCl)Cc1cccc(F)c1F [10-K17, 1-chloro-3-(2,3-difluorophenyl)propan-2-one] | 33.7
33 | Cc1ccc2nc(-c3ccc(N4C(=O)C=CC4=O)cc3)sc2c1 [10-K18, 1-[4-(6-methyl-1,3-benzothiazol-2-yl)phenyl]-2,5-dihydro-1H-pyrrole-2,5-dione] | 107
34 | O=C(CCl)C1(F)CCCCC1 [10-K19, 2-chloro-1-(1-fluorocyclohexyl)ethan-1-one] | 97.5
35 | O=CN1CCc2cc(C(=O)CCl)ccc21 [10-K20, 5-(2-chloroacetyl)-2,3-dihydro-1H-indole-1-carbaldehyde] | 89.7
36 | COC(=O)c1c(C(=O)CCl)c(C)n(C(C)C)c1C [10-K21, methyl 4-(2-chloroacetyl)-2,5-dimethyl-1-(propan-2-yl)-1H-pyrrole-3-carboxylate] | 71.2
37 | O=C1NC(=O)c2cc(NC(=O)N3CCSSCC3)ccc21 [10-K22, N-(1,3-dioxo-2,3-dihydro-1H-isoindol-5-yl)-1,2,5-dithiazepane-5-carboxamide] | 98.8
38 | Cc1cc(C(=O)CCl)c(C)n1CCC(C)C [10-L03, 2-chloro-1-[2,5-dimethyl-1-(3-methylbutyl)-1H-pyrrol-3-yl]ethan-1-one] | 76.2

Row | Structure (SMILES) | viability at 48 h, 25 µM [%]
39 | COc1cc(OC)c(C(=O)CCl)c(OC)c1 [10-L04, 2-chloro-1-(2,4,6-trimethoxyphenyl)ethan-1-one] | 80.7
40 | COc1ccc2[nH]c(C)c(C(=O)CCl)c2c1 [10-L05, 2-chloro-1-(5-methoxy-2-methyl-1H-indol-3-yl)ethan-1-one] | 14.8
41 | NC(=O)c1csc(C(=O)CCl)c1 [10-L06, 5-(2-chloroacetyl)thiophene-3-carboxamide] | 66.2
42 | Cc1cccc(-n2cc(C(=O)CCl)nn2)c1 [10-L07] | 81.5
43 | O=C(CCl)c1cscn1 [10-L08, 2-chloro-1-(1,3-thiazol-4-yl)ethan-1-one] | 59.2
44 | Cc1ccc(S(=O)(=O)N2CCSSCC2)c(F)c1 [10-L09, 5-(2-fluoro-4-methylbenzenesulfonyl)-1,2,5-dithiazepane] | 92.2
45 | CCCn1c(N)c(C(=O)CCl)c(=O)[nH]c1=O [10-L10, 6-amino-5-(2-chloroacetyl)-1-propyl-1,2,3,4-tetrahydropyrimidine-2,4-dione] | 97.8
46 | COc1ccc(N2C(=O)C=CC2=O)c([N+](=O)[O-])c1 [10-L11, 1-(4-methoxy-2-nitrophenyl)-2,5-dihydro-1H-pyrrole-2,5-dione] | 100
47 | COC(=O)Cc1ccc(C(=O)CCl)s1 [10-L12, methyl 2-[5-(2-chloroacetyl)thiophen-2-yl]acetate] | 76.1
48 | O=C(CCl)c1ccc(F)c(F)c1 [10-L13, 2-chloro-1-(3,4-difluorophenyl)ethan-1-one] | 95.7
49 | N#CC(C(=O)CCl)c1nncn1-c1ccccc1 (stereo not drawn) [10-L14, 4-chloro-3-oxo-2-(4-phenyl-4H-1,2,4-triazol-3-yl)butanenitrile] | 83.7
50 | Cn1c(=O)c(C(=O)CCl)c(N)n(Cc2ccccc2)c1=O [10-L15, 6-amino-1-benzyl-5-(2-chloroacetyl)-3-methyl-1,2,3,4-tetrahydropyrimidine-2,4-dione] | 76.7
51 | O=C(CCl)c1ccc(Cl)c(Cl)c1 [10-L16, 2-chloro-1-(3,4-dichlorophenyl)ethan-1-one] | 31.3
52 | O=C(CCl)c1cnc(N2CCCCC2)s1 [10-L17, 2-chloro-1-[2-(piperidin-1-yl)-1,3-thiazol-5-yl]ethan-1-one] | 101
53 | Cc1cc(C(=O)CCl)c(C)n1-c1ccc(Cl)c(C(F)(F)F)c1 [10-L18, 2-chloro-1-{1-[4-chloro-3-(trifluoromethyl)phenyl]-2,5-dimethyl-1H-pyrrol-3-yl}ethan-1-one] | 0.747
54 | Cc1cc(F)c(C(=O)CCl)cc1F [10-L19, 2-chloro-1-(2,5-difluoro-4-methylphenyl)ethan-1-one] | 87
55 | Cc1cc(C(=O)CCl)c(C)n1-c1ccccc1 [10-L20, 2-chloro-1-(2,5-dimethyl-1-phenyl-1H-pyrrol-3-yl)ethan-1-one] | 1.11
56 | O=C(Cc1cccc(F)c1)N1CCSSCC1 [10-L21, 1-(1,2,5-dithiazepan-5-yl)-2-(3-fluorophenyl)ethan-1-one] | 108
57 | CC(=O)N1CCc2cc(C(=O)C(C)Cl)ccc21 (stereo not drawn) [10-L22, 1-(1-acetyl-2,3-dihydro-1H-indol-5-yl)-2-chloropropan-1-one] | 82.9
